Drawing on US6506766B1 (Abbott Laboratories, priority 1998, dated 2003), this text covers Ki for 24 compounds.

Assay [1] concerns the target T1, human glucocorticoid receptor-α [GRX] isoform (Homo sapiens, UniProt P04150).
T1 construct: host or cells: insect SF21 cells (baculovirus)
T1 sequence (P04150 1-777): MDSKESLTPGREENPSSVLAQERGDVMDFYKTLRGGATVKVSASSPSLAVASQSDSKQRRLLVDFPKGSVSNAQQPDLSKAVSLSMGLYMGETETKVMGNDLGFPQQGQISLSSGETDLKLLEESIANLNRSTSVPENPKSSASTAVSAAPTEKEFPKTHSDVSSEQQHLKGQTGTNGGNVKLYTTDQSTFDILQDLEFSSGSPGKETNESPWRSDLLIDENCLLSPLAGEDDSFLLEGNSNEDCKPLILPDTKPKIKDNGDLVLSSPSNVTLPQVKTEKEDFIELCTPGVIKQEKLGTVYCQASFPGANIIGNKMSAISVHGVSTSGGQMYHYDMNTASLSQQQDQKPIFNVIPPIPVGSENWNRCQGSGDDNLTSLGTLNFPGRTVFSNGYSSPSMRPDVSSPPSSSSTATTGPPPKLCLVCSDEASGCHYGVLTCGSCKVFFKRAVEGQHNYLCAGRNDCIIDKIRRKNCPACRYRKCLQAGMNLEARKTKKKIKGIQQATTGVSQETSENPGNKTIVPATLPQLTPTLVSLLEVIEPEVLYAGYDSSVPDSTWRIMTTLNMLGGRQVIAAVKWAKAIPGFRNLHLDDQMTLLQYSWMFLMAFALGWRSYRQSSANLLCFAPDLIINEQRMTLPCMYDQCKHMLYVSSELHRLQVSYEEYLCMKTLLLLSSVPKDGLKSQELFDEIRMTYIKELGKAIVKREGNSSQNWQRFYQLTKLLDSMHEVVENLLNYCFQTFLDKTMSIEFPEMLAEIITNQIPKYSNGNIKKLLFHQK
Nature of the assay: Radioligand binding with human glucocorticoid receptor cytosol ([3H]-dexamethasone competition). Conditions: GRX cytosol expressed in insect SF21 cells, [3H]-Dex ~0.9 nM, 4° C. overnight; Ki by Cheng-Prusoff, KL ~[…]; read-out: Ki (nM) GR.

Assay [2] deals with T2, human progesterone receptor-A [PRA] isoform (Homo sapiens, UniProt P06401).
T2 construct: host or cells: insect SF21 cells (baculovirus)
T2 sequence (P06401 1-769 isoform P06401-2): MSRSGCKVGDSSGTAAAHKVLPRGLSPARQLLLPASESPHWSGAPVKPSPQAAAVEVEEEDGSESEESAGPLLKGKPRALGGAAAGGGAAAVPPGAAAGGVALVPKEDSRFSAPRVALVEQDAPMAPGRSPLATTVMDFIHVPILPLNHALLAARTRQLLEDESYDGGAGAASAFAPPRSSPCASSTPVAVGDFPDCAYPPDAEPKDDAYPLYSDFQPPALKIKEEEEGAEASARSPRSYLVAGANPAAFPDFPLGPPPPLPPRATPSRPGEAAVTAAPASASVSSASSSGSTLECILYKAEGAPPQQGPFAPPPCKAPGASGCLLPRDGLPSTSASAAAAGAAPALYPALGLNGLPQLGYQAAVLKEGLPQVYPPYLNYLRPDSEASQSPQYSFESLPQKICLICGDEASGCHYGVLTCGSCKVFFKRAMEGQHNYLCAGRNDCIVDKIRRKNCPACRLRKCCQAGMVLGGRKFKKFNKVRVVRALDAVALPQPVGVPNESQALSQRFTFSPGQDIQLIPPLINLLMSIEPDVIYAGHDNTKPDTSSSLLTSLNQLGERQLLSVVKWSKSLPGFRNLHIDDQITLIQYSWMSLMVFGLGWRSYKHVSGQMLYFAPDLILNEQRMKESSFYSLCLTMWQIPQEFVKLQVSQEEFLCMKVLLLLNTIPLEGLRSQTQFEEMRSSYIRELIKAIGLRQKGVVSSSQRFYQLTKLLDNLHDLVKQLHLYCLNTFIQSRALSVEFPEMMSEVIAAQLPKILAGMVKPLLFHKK
Nature of the assay: Radioligand binding with human progesterone receptor cytosol ([3H]-progesterone competition). Conditions: PRA cytosol expressed in insect SF21 cells, [3H]Prog ~0.8 nM, 4° C. overnight; Ki by Cheng-Prusoff, KL ~4.5 nM; read-out: Ki (nM) PR.

Regarding `COc1cccc2c1-c1ccc3c(c1C(c1ccccc1)O2)C(C)=CC(C)(C)N3` (single isomer, unassigned) [Example 25, (±)-2,5-Dihydro-10-methoxy-2,2,4-trimethyl-5-phenyl-1H-[1]benzopyrano-[3,4-f]quinoline], the inhibition constant Ki in assay [1] is 240 nM; in assay [2], at least 10000 nM.

Take `COc1cccc2c1-c1ccc3c(c1C(c1ccccc1)O2)C(C)=CC(C)(C)N3` (single isomer, unassigned) [Example 26, (±)-2,5-Dihydro-10-methoxy-2,2,4-trimethyl-5-phenyl-1H-[1]benzopyrano[3,4-f]quinoline]: the results for the Ki in assay [1] and in assay [2] were 2.1 nM and 13400 nM, respectively.

As for `COc1cccc2c1-c1ccc3c(c1C(C1CCCCC1=O)O2)C(C)=CC(C)(C)N3` (single isomer, unassigned) [Example 142, 2,5-Dihydro-10-methoxy-5-(1-oxo-2-cyclohexyl)-2,2,4-trimethyl-1H-[1]benzopyrano[3,4-f]quinoline], the inhibition constant Ki in assay [1] was 51 nM; in assay [2], at least 10000 nM.

In the case of `COC(=O)C1=CC(C2Oc3ccc(O)c(OC)c3-c3ccc4c(c32)C(C)=CC(C)(C)N4)CCC1` (single isomer, unassigned) [Example 288], the Ki in assay [1] turned out to be 0.86 nM; in assay [2], 4080 nM.

Consider `COC(=O)C1=CC(C2Oc3ccc(O)c(OC)c3-c3ccc4c(c32)C(C)=CC(C)(C)N4)CCC1` (single isomer, unassigned) [Example 415], for which the Ki in assay [1] amounted to 9.9 nM; in assay [2], 3740 nM.

Consider `C=CCC1Oc2cccc(OC)c2-c2ccc3c(c21)C(C)=CC(C)(C)N3` (single isomer, unassigned; (+)) [Example 37, (+)-2,5-Dihydro-10-methoxy-2,2,4-trimethyl-5-(2-propenyl)-1H-[1]benzopyrano[3,4-f]quinoline], for which the Ki is 20 nM in assay [1] and at least 10000 nM in assay [2].

As to `COc1c(O)ccc2c1-c1ccc3c(c1C(C1C=CCCC1)O2)C(C)=CC(C)(C)N3` (single isomer, unassigned; (+)) [Example 284], the Ki in assay [1] was 110 nM; in assay [2] it was 2100 nM.

For `C=CCC1Oc2cccc(OC)c2-c2ccc3c(c21)C(C)=CC(C)(C)N3` (single isomer, unassigned; (-)) [Example 36, (−)2,5-Dihydro-10-methoxy-2,2,4-trimethyl-5-(2-propenyl)-1H-[1]benzopyrano[3,4-f]quinoline], the inhibition constant Ki in assay [1] worked out at 1.4 nM; in assay [2], 1700 nM.

`COc1c(O)ccc2c1-c1ccc3c(c1[C@H](C1(C)CC=CCC1)O2)C(C)=CC(C)(C)N3` (single isomer, unassigned; (-)) [Example 238]: the Ki in assay [1] stood at 1.2 nM; in assay [2] it was 11.5 nM.

Regarding `CC1=CC(C)(C)Nc2ccc3c(c21)C(C1CCCC1)Oc1ccc(O)c(Cl)c1-3` (single isomer, unassigned; (-)) [Example 422, (−)2,5-Dihydro-9-hydroxy-10-chloro-2,2,4-trimethyl-5-cyclopentyl-1H-[1]benzopyrano[3,4-f]quinoline], the Ki was 0.28 nM in assay [1] and 2.9 nM in assay [2].

As to `COc1cccc2c1-c1ccc3c(c1[C@@H](C1CCCOC1=O)O2)C(C)=CC(C)(C)N3` (stereo in doubt) [Example 134, rel (5R,2′R) 2,5-Dihydro-10-methoxy-5-(2-oxo-3-tetrahydropyranyl)-2,2,4-trimethyl-1H[1]benzopyrano[3,4-f]quinoline], the figures for the inhibitory constant (Ki) in assay [1] and in assay [2] were 238 nM and at least 10000 nM, respectively.

Regarding `COc1cccc2c1-c1ccc3c(c1[C@H](C1(C)CC=CCC1)O2)C(C)=CC(C)(C)N3` (stereo in doubt) [Example 152, rel (5S,3′S) 2,5-Dihydro-10-methoxy-5-(1-methyl-3-cyclohexenyl)-2,2,4-trimethyl-1H[1]benzopyrano[3,4-f]quinoline], the Ki was 1.8 nM in assay [1] and at least 10000 nM in assay [2].

As for `COc1cccc2c1-c1ccc3c(c1C([C@H]1C=C(CSC)CCC1)O2)C(C)=CC(C)(C)N3` (stereo in doubt) [Example 161], the Ki in assay [1] was 3.3 nM; in assay [2] it was at least 10000 nM.

As to `COc1cccc2c1-c1ccc3c(c1C([C@@H]1C=C(COC(C)=O)CCC1)O2)C(C)=CC(C)(C)N3` (stereo in doubt) [Example 162], the inhibition constant (Ki) in assay [1] was 6.5 nM; in assay [2], at least 10000 nM.

As for `COc1cccc2c1-c1ccc3c(c1C([C@@H]1C=C(CSC)CCC1)O2)C(C)=CC(C)(C)N3` (stereo in doubt) [Example 166], the Ki was 8.16 nM in assay [1] and 5630 nM in assay [2].

Regarding `COc1cccc2c1-c1ccc3c(c1C([C@H]1C=C(CN4CCOCC4)CCC1)O2)C(C)=CC(C)(C)N3` (stereo in doubt) [Example 167, rel (5R, 3′R) 2,5-Dihydro-10-methoxy-5-(1-(N-morpholino)methyl-3-cyclohexenyl)-2,2,4-trimethyl-1H-[1]benzopyrano[3,4-f]quinoline], the inhibition constant Ki was 21 nM in assay [1] and at least 10000 nM in assay [2].

Regarding `COc1cccc2c1-c1ccc3c(c1C([C@@H]1C=C(CN(C)C)CCC1)O2)C(C)=CC(C)(C)N3` (stereo in doubt) [Example 169, rel (5R, 3′S) 2,5-Dihydro-10-methoxy-5-(1-(N,N dimethylamino)methyl-3-cyclohexenyl)-2,2,4-trimethyl-1H-[1]benzopyrano[3,4-f]quinoline], the values for the Ki in assay [1] and in assay [2] were 300 nM and at least 10000 nM, respectively.

For the compound `COc1cccc2c1-c1ccc3c(c1C(c1ccccc1)O2)C(C)=CC(C)(C)N3` (stereo not drawn) [Example 1, 2,5-Dihydro-10-methoxy-2,2,4-trimethyl-5-phenyl-1H-[1]benzopyrano[3,4-f]quinoline1H-[1]benzopyrano[3,4-f]quinoline], the figures for the Ki in assay [1] and in assay [2] were 8.6 nM and at least 10000 nM, respectively.

`C=CCC1Oc2cccc(OC)c2-c2ccc3c(c21)C(C)=CC(C)(C)N3` (stereo not drawn) [Example 2, 2,5-Dihydro-10-methoxy-2,2,4-trimethyl-5-(2-propenyl)-1H-[1]benzopyrano[3,4-f]quinoline]: the Ki in assay [1] amounted to 7.6 nM; in assay [2], 1700 nM.

For the compound `C=CCC1Oc2cccc(NC)c2-c2ccc3c(c21)C(C)=CC(C)(C)N3` (stereo not drawn) [Example 3, 2,5-Dihydro-2,2,4,N-tetramethyl-5-(2-propenyl)-1H-[1]benzopyrano[3,4-f]quinolin-10-amine], the Ki in assay [1] turned out to be 4.8 nM; in assay [2] it was 2650 nM.

In the case of `C=CCC1Oc2cccc(C(=O)OC)c2-c2ccc3c(c21)C(C)=CC(C)(C)N3` (stereo not drawn) [Example 4, Methyl 2,5-Dihydro-2,2,4-trimethyl-5-(2-propenyl)-1H-[1]benzopyrano[3,4-f]quinoline-10-carboxylate], the inhibition constant Ki came out at 7 nM in assay [1] and 2960 nM in assay [2].

Consider `C=CCC1Oc2cccc(C=C)c2-c2ccc3c(c21)C(C)=CC(C)(C)N3` (stereo not drawn) [Example 5, 10-Ethenyl-2,5-dihydro-2,2,4-trimethyl-5-(2-propenyl)-1H-[1]benzopyrano[3,4-f]quinoline], for which the Ki in assay [1] is 357 nM; in assay [2] it was at least 10000 nM.

With `C#Cc1cccc2c1-c1ccc3c(c1C(CC=C)O2)C(C)=CC(C)(C)N3` (stereo not drawn) [Example 6, 10-Ethynyl-2,5-dihydro-2,2,4-trimethyl-5-(2-propenyl)-1H-[1]benzopyrano[3,4-f]quinoline], the Ki in assay [1] amounted to 3.8 nM; in assay [2] it was 321 nM.

With `CC1=CC(C)(C)Nc2ccc3c(c21)C(c1ccccc1)Oc1cccc(O)c1-3` (stereo not drawn) [Example 7, 2,5-Dihydro-2,2,4-trimethyl-5-phenyl-1H-[1]benzopyrano[3,4-f]quinolin-10-ol], the inhibitory constant (Ki) in assay [1] was 4.3 nM; in assay [2] it was 5680 nM.
